# US20100227827A1, “METHOD OF INCREASING TRYPTOPHAN AND NICOTINAMIDE LEVELS IN VIVO” (priority 2006, published 2010)
# Read-outs that look alike come from different tables or passages of the source.
# Legend:
# [1] = Repeat daily oral doses, quinic acid analyzed in serum by HPLC; type: in vivo, human
# Method: Trial design for the clinical evaluation of Aqua Bimini™ (quinic acid ammonium chelate) was carried out at Lund University beginning Apr. 28, 2006. Two Subjects identity code protected as HL and RP received Aqua Bimini™ at 1500 mg/day and 3000 mg/day, respectively for 4 consecutive weeks (36 days). Repeat serum and urine samples were collected throughout the trial period and then pooled into groups for analysis as 6 weeks before (baseline), 4 weeks of intervention (treatment, 36 days) and 8 months dry-out (no treatment).
# Two human volunteers subject two and subject one ingested daily doses of 1500 mg per day or 3000 mg per day and serum samples collected on May 8, May 15, May 18, May 23, May 29, and June 1.
# These samples were each analyzed for quinic acid content in 200 μl serum after precipitation with 2 M trichloroacetic acid (TCA). The column used for these experiments was a C18 80×4.6 mm. The mobile phase was 0.2% trifluoroacetic (TFA):methanol 85:15. The UV detector was set at 215 nm and quinic acid eluted with a retention time of 1.40-1.5 min. The sensitivity for detection of this method was about 1 mg quinic acid /ml serum or a detectable dose of 70 mg/kg in humans not 21 to 42 mg/kg as used herein in this study. Thus this protocol could assess if the quinic acid levels in serum would accumulate after repeated daily administration during a period of 4-5 weeks.
# [2] = Urinary quinic acid, hippuric acid, tryptophan and nicotinamide by HPLC; type: in vivo, human; settings: for urinary tryptophan at start of treatment / urinary nicotinamide at start of treatment: 8 May 2006 and 15 May 2006; for dose excreted at 9 month: urine, oral, read-out: Dose recovery (excrete/dose), excreted as unmetabolized quinic acid
# Method: Blood samples were collected by venal puncture using vacutainers (red top, 10 ml) usually in the morning (a.m.) after 12 hours of fasting. Serum was separated from the blood clot after setting 2 hr on the bench top before centrifugation for 10 min at 1500×g. Sera prepared in this manner were stored at +4° C. until biochemical analysis usually within 1-30 days of collection. Urine samples were collected as a random 50 ml sample in the A.M. during the treatment and follow-up (after treatment for 8 months) periods. Urine was spun at 5000×g for 15 min and the supernatant stored at +4° C. until analyzed within 1 month of collection. After the first analysis all samples were further stored at −20° C. and used for repeat determinations over time. Trial design for the clinical evaluation of Aqua Bimini™ (quinic acid ammonium chelate) was carried out at Lund University beginning Apr. 28, 2006. […] Repeat serum and urine samples were collected throughout the trial period and then pooled into groups for analysis as 6 weeks before (baseline), 4 weeks of intervention (treatment, 36 days) and 8 months dry-out (no treatment). Urine samples were mixed with 1:2:4 v/v/v of: aqueous urine:95% ethanol:ethyl acetate for 10 min with vigorous shaking. The ethyl acetate layer was allowed to separate with gravity at room temperature, and then it was removed with a pipette and evaporated with an air stream to dryness in a vacuum hood. In this manner 1-2 ml of urine were reconstituted in 0.2 ml water or ethanol which represented a 5-10 fold increase in concentration. […] The urine samples were diluted 1:2:4 v/v/v with ethanol and ethyl acetate, and then the ethyl acetate fraction dried, solubilized in 0.2 ml water and used for HPLC analyses with 20 μl injections directly onto a C18 80×4.6 mm. The mobile phase was 0.2% trifluoroacetic (TFA):methanol:acetonitrile (70:30):water in a ratio 8:8:84 (v/v/v). The UV detector was set at 215 nm, and quinic acid eluted with a retention of 0.97-1.05 min and nicotinamide at 2.6-2.9 min. The detection limit in urine was about 1.5 mg/ml for quinic acid and for nicotinamide it was 0.015 mg/ml. […] The urine samples were diluted 1:2:4 v/v/v with ethanol and ethyl acetate, and then the ethyl acetate fraction dried, solubilized in 0.2 ml water and used for HPLC analyses with 20 μl injections directly onto a C18 80×4.6 mm. The mobile phase was 70:30 v/v, 0.2% TFA: 30% methanol. The UV detector was set at 225 nm. Tryptophan eluted after 5.2-5.4 min and hippuric acid after 3.1-3.4 min.
# [3] = 3000 mg/day for 36 days (printed HL)
# [4] = subject one (3000 mg/day), 1st 4 months no treatment, n=11
# [5] = subject one (3000 mg/day), 2nd 4 months no treatment, n=3
# [6] = subject one, 3000 mg/day QA (30 days), n=5
# [7] = subject two (1500 mg/day), 1st 4 months no treatment, n=6
# [8] = subject two (1500 mg/day), 2nd 4 months no treatment, n=6
# [9] = subject two, 1500 mg/day QA (30 days), n=5
smiles,measurement,setting,value
"O=C(O)[C@]1(O)C[C@@H](O)[C@@H](O)[C@H](O)C1 [Aqua Bimini™, quinic acid ammonium chelate]",quinic acid in blood serum samples,"[1]; 1500 mg or 3000 mg daily oral, 6 samples day 10 to day 37",No quinic acid was found
same,quinic acid in human serum,"[1]; efficacious dose 25 mg/kg in humans, HPLC detection limit 1 mg/kg",no quinic acid found
same,urinary tryptophan at start of treatment,[2]; 3000 mg/day (printed HL),9.32 µM
same,"Increase in urinary quinic acid (QA) metabolite (ratio), tryptophan",[2]; [3],2.44
same,Increase tryptophan/increase thiols,[2]; [3],1.94
same,average urinary tryptophan during treatment + follow-up,[2]; [3],22.7 µM
same,"Increase in urinary quinic acid (QA) metabolite (ratio), nicotinamide",[2]; HL 1500 mg/day for 36 days,2.83
same,"Increase in urinary quinic acid (QA) metabolite (ratio), tryptophan",[2]; HL 1500 mg/day for 36 days,0.99
same,Increase nicotinamide/increase thiols,[2]; HL 1500 mg/day for 36 days,2.32
same,Increase tryptophan/increase thiols,[2]; HL 1500 mg/day for 36 days,0.82
same,average urinary nicotinamide during treatment + follow-up,[2]; HL 1500 mg/day for 36 days,215 µM
same,average urinary tryptophan during treatment + follow-up,[2]; HL 1500 mg/day for 36 days,21.3 µM
same,urinary nicotinamide at start of treatment,[2]; HL 1500 mg/day,76 µM
same,urinary tryptophan at start of treatment,[2]; HL 1500 mg/day,19.3 µM
same,"Increase in urinary quinic acid (QA) metabolite (ratio), nicotinamide",[2]; RP 3000 mg/day for 36 days,5.41
same,Increase nicotinamide/increase thiols,[2]; RP 3000 mg/day for 36 days,4.29
same,average urinary nicotinamide during treatment + follow-up,[2]; RP 3000 mg/day for 36 days,57.9 µM
same,urinary nicotinamide at start of treatment,[2]; RP 3000 mg/day,10.7 µM
same,"Dose recovery (excrete/dose), excreted as unmetabolized quinic acid","[2]; Subject 3000 mg/day, 9 month evaluation period",59%
same,Ratio of total dose excreted in 9 months,"[2]; human, in vivo, 9 months",2.86
same,remaining dose absorbed as hippuric acid or further metabolized to other compounds,"[2]; human, in vivo, 1 day",29.7%
same,dose excreted at 9 month,"[2]; human, 1500 mg/day, Subject 1500 mg/day, 9 month evaluation period",40%
same,dose excreted at 9 month,"[2]; human, 3000 mg/day, Subject 3000 mg/day, 9 month evaluation period",56%
same,"Urinary excretion daily sample, Tryptophan (avg)","[2]; oral human dose 21-42 mg/kg (1500-3000 mg/day), 33 days, average over 9 months of RP and HL",Tryptophan. = 4.2 mg/liter^b
same,urinary Nicotinamide,[2]; [4],71 ± 44 µM
same,urinary Tryptophan,[2]; [4],22 ± 7 µM
same,urinary Nicotinamide,[2]; [5],71 ± 63 µM
same,urinary Tryptophan,[2]; [5],19 ± 6 µM
same,urinary Nicotinamide,"[2]; subject one (3000 mg/day), total sample mean, 9 months, n=19",58 ± 46 µM
same,urinary Tryptophan,"[2]; subject one (3000 mg/day), total sample mean, 9 months, n=19, listed as QA",19 ± 7 µM
same,urinary Nicotinamide,[2]; [6],21 ± 16 µM
same,urinary Tryptophan,[2]; [6],13 ± 5 µM
same,urinary Nicotinamide,[2]; [7],453 ± 139 µM
same,urinary Tryptophan,[2]; [7],30 ± 8 µM
same,urinary Nicotinamide,[2]; [8],24 ± 7 µM
same,urinary Tryptophan,[2]; [8],17 ± 7 µM
same,urinary Nicotinamide,"[2]; subject two (1500 mg/day), total sample mean, 9 months, n=17",216 ± 210 µM
same,urinary Tryptophan,"[2]; subject two (1500 mg/day), total sample mean, 9 months, n=17, listed as QA",22 ± 9 µM
same,urinary Nicotinamide,[2]; [9],163 ± 91 µM
same,urinary Tryptophan,[2]; [9],18 ± 5 µM
same,"ratio of nicotinamide/thiols ratios, 3000 versus 1500 mg per day",[2]; theoretical dose ratio 2.0,1.85
same,"ratio of tryptophan/thiols ratios, 3000 versus 1500 mg per day",[2]; theoretical dose ratio 2.0,2.4
